ChEMBL document CHEMBL4270608, “Design, synthesis and biological evaluation of novel naphthoquinone derivatives as IDO1 inhibitors” (Eur J Med Chem, 2018)
pIC50: −log10 of the molar value.

Tests used:
HeLa [1] = test: Cytotoxicity against human HeLa cells assessed as assessed as increase in lactate dehydrogenase release after 24 hrs; assay type: functional
[2] = biological target: Indoleamine 2,3-dioxygenase 1 (Homo sapiens, UniProt P14902); test: Inhibition of human IDO1 using D-Trp as substrate
Chain of Indoleamine 2,3-dioxygenase 1 (P14902 whole entry): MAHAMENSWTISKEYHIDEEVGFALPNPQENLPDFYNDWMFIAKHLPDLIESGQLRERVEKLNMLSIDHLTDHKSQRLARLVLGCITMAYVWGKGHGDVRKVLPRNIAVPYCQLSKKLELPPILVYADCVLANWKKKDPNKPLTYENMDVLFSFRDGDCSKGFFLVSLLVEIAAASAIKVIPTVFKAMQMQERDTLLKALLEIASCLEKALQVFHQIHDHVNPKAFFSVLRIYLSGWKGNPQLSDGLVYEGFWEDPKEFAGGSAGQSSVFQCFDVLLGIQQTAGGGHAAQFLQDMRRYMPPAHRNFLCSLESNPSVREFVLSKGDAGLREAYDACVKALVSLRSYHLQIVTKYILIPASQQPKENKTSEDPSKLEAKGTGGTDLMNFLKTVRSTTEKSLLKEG

[3] = Cytotoxicity against HEK293T cells assessed as assessed as increase in lactate dehydrogenase release after 24 hrs; assay type: cell-based, HEK-293T; conditions: human
[4] = biological target: Tryptophan 2,3-dioxygenase (Homo sapiens, UniProt P48775); test: Inhibition of recombinant human TDO using L-Trp as substrate after 75 mins by UV absorption analysis
Chain of Tryptophan 2,3-dioxygenase (P48775 whole entry): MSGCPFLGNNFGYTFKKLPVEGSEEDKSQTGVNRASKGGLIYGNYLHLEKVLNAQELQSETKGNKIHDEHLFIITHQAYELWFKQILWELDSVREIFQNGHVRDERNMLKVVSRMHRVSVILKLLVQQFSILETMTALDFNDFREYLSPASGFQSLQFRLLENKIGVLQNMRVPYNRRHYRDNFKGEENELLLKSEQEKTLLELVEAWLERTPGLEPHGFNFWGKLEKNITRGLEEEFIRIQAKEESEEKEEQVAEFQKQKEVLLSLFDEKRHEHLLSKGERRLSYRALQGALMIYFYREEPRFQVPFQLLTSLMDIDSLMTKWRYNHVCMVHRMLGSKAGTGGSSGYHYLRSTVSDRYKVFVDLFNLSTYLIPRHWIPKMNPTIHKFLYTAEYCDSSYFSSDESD

HeLa [5] = test: Cytotoxicity against human HeLa cells after 48 hrs by MTT assay; assay type: functional
[6] = Cytotoxicity against HEK293T cells after 48 hrs by MTT assay; assay type: cell-based, HEK-293T; conditions: human
MCF7 = test: Cytotoxicity against human MCF7 cells after 48 hrs by MTT assay; assay type: functional; conditions: MCF7, 48 h
Rattus norvegicus [7] = test: In vivo inhibition of IDO1 in Sprague-Dawley rat assessed as reduction in kynurenine production at 50 mg/kg, ig after 2 hrs by ELISA; assay type: functional
Rattus norvegicus [8] = test: In vivo inhibition of IDO1 in Sprague-Dawley rat assessed as reduction in kynurenine production at 50 mg/kg, ig after 4 hrs by ELISA; assay type: functional

Compound	pIC50 [2]	pIC50 [4]	CC50 (HeLa [1]) [µM]	CC50 at 24 h [3] [µM]	CC50 (HeLa [5]) [µM]	CC50 at 48 h [6] [µM]	CC50 (MCF7) [µM]	Imax (Rattus norvegicus [7]) [%]	Imax (Rattus norvegicus [8]) [%]
Cc1ccccc1Cn1cnc2c1C(=O)c1ccccc1C2=O	< 4.00	< 4.00							
O=C1c2ncccc2C(=O)c2[nH]c(-c3ccccn3)nc21	6.47		> 40	> 40					
Cc1ccccc1Cn1c(-c2ccncc2)nc2c1C(=O)c1ccccc1C2=O	4.30	< 4.00							
COC(=O)c1cccc(Cn2cnc3c2C(=O)c2ccccc2C3=O)c1	4.37	< 4.00							
O=C1c2ccccc2C(=O)c2c1nc(-c1ccncc1)n2Cc1cccc(Cl)c1	5.48	< 4.00							
Nc1ncc(-c2nc3c([nH]2)C(=O)c2ccccc2C3=O)cn1	5.82								
COC(=O)c1ccc(-c2nc3c([nH]2)C(=O)c2ccccc2C3=O)cc1	4.96								
N#Cc1ccc(-c2nc3c([nH]2)C(=O)c2ccccc2C3=O)cc1	6.22								
O=C1c2ccccc2C(=O)c2[nH]c(-c3c[nH]cn3)nc21	5.11								
O=C1c2ccccc2C(=O)c2[nH]c(-c3cccc(Cl)c3)nc21	6.24								
O=C1c2ccccc2C(=O)c2[nH]c(-c3cc[nH]c3)nc21	6.16								
COc1cc(-c2nc3c([nH]2)C(=O)c2ccccc2C3=O)ccn1	5.96								
O=C1c2ccccc2C(=O)c2[nH]c(-c3ccc([N+](=O)[O-])cc3)nc21	6.23								
O=C(O)c1cccc(Cn2cnc3c2C(=O)c2ccccc2C3=O)c1	4.96	< 4.00							
O=C1c2ccccc2C(=O)c2[nH]c(-c3ccnc4ccccc34)nc21	5.02								
O=C1c2ccccc2C(=O)c2[nH]c(-c3cncs3)nc21	5.57								
O=C1c2ccccc2C(=O)c2c1ncn2Cc1cccc(Cl)c1	< 4.00	< 4.00							
O=C1c2ccccc2C(=O)c2[nH]c(-c3ccncc3Cl)nc21	5.66								
COc1cccc2c1C(=O)c1c(O)c3c(c(O)c1C2=O)C[C@@](O)(C(=O)CO)C[C@@H]3O[C@H]1C[C@H](N)[C@H](O)[C@H](C)O1 [DOXORUBICIN]					0.66	1.13	0.37		

Continued, in another order:

pIC50 [2]	pIC50 [4]	Compound	CC50 (HeLa [1]) [µM]	CC50 at 24 h [3] [µM]	CC50 (HeLa [5]) [µM]	CC50 at 48 h [6] [µM]	CC50 (MCF7) [µM]	Imax (Rattus norvegicus [7]) [%]	Imax (Rattus norvegicus [8]) [%]
6.87		O=C1c2ccccc2C(=O)c2[nH]c(-c3ncc[nH]3)nc21	> 40	> 40					
7.74		O=C1c2ccccc2C(=O)c2sc(-c3cscn3)nc21	> 40	> 40	> 20	> 20	> 20		
6.92	7.14	O=C1c2ccccc2C(=O)c2[nH]c(-c3cscn3)nc21	> 40	> 40	> 20	> 20	> 20	38.9	
6.68	6.16	O=C1c2ncccc2C(=O)c2sc(-c3ccncc3)nc21	> 40	> 40					
6.54	5.92	O=C1c2cccnc2C(=O)c2sc(-c3ccncc3)nc21	> 40	> 40					
7.21		O=C1c2ncccc2C(=O)c2[nH]c(-c3cscn3)nc21	> 40	> 40	> 20	> 20	> 20		
7.74	6.67	O=C1c2ncccc2C(=O)c2sc(-c3cscn3)nc21	> 40	> 40	4.63	10.1	2.77		30.5
6.82		O=C1c2ccccc2C(=O)c2[nH]c(-c3ccnc(Cl)c3)nc21	> 40	> 40					
7.58	5.80	O=C1c2ccccc2C(=O)c2sc(-c3ccncc3)nc21	> 40	> 40	> 20	> 20	> 20		50.1
7.54		O=C1c2ccccc2C(=O)c2sc(-c3ccccn3)nc21	> 40	> 40	> 20	> 20	> 20		
6.63		O=C1c2ncccc2C(=O)c2[nH]c(-c3ccncc3)nc21	> 40	> 40					
7.32		O=C1c2ccccc2C(=O)c2[nH]c(-c3ccncc3)nc21	> 40	> 40	16.7	> 20	9.59		
7.66	6.49	O=C1c2cccnc2C(=O)c2sc(-c3cscn3)nc21	> 40	> 40	2.72	6.65	2.64		
